Assay results: US11648290B2, “Cartilage-homing peptides” (FRED HUTCHINSON CANCER CENTER, priority 2015, dated 2023)

Columns and labels:
[1] = test system: cartilage (IVD, knee / synovial joints); assay: Whole body autoradiography (WBA) of radiolabeled cartilage homing peptides (Example 21); format: in vivo, Female Harlan athymic nude mice
Protocol: This example illustrates peptide homing to cartilage mice 5 minutes to 48 hours after administration of a radiolabeled peptide. Signal from the radiolabeled peptides was found in all types of cartilage at each time point examined. Each peptide was radiolabeled by methylating […] as described in EXAMPLE 2. As such, the peptide may contain methyl or dimethyl lysines and a methylated or dimethylated amino terminus. A dose of 100 nmol radiolabeled peptide was administered via tail vein injection in Female Harlan athymic nude mice, weighing 20-25 g. The experiment was done in duplicate (n=2 animals per group). In some animals, kidneys were ligated to prevent renal filtration of the radiolabeled peptides and extend plasma half-life. Each radiolabeled peptide was allowed to freely circulate within the animal for the described time period before the animals were euthanized and sectioned.
Whole body autoradiography (WBA) sagittal sectioning was performed as follows. […] Sections were allowed to desiccate in a freezer prior to imaging.
For the autoradiography imaging, tape mounted thin sections were freeze dried and radioactive samples were exposed to phophoimager plates for 7 days.

pepsin = pepsin (Homo sapiens, UniProt P0DJD8); assay: Peptide resistance to pepsin digestion / simulated gastric fluid (RP-HPLC); format: in vitro ADME; conditions: 12.5 ug peptide, 20 ug pepsin, SGF pH 1.05, 30 minutes at 37.5 C
Protocol: SEQ ID NO: 24 peptide and SEQ ID NO: 111 peptide were suspended in 500 μl of ddH2O at a stock concentration of 2 mg/ml. Reactions were prepared with 12.5 μg peptide and 20 μg pepsin in simulated gastric fluid (pH 1.05) and incubated for 30 minutes at 37.5° C. Reactions were quenched with a final concentration of 100 mM Tris base and 10 mM dithiothreitol (DTT). Reversed phase HPLC (RP-HPLC) was run on samples using an Agilent 1260 HPLC equipped with a C-18 Poroshell 120B column. Sample were analyzed by a gradient method with a mobile phase of Solvent A (water with 0.1% TFA) and Solvent B (acetonitrile with 0.1% TFA). Solvent B was ramped up from 5%-45% of the mobile phase over a period of 10 minutes. Peptides were detected at an absorbance of 214 nm and 280 nm.

[2] = Peptide resistance to reducing agents (10 mM DTT, RP-HPLC); format: physicochemical; conditions: 10 mM DTT in PBS, room temperature, 30 minutes
Protocol: Several peptides were suspended in 500 μl of ddH2O to a stock concentration of 2 mg/ml. Reactions were prepared by adding 12.5 μg peptide from the stock solution to a 10 mM solution of DTT in PBS and allowed to incubate at room temperature for 30 minutes. RP-HPLC was run on samples using an Agilent 1260 HPLC equipped with a C-18 Poroshell 120B column. Samples were analyzed by a gradient method with a mobile phase of Solvent A (water with 0.1% TFA) and Solvent B (acetonitrile with 0.1% TFA). Solvent B was ramped up from 5%-45% of the mobile phase over a period of 10 minutes.
Peptides were fractionated by HPLC and without any further sample prep, 5 μl of the sample was injected into the mass spectrometer at 1 mg/ml using a CTCPAL® autosampler. Alternatively, if peptides were provided as a lyophilized powder, the sample was dissolved in 100% water to a concentration of 1 mg/ml a Millipore Ziptip C18® column was used to desalt the peptides prior to injection for ES-MS. The mass spectrometer was calibrated using 5 pmol of mixture of five standard peptides to achieve a high accuracy of mass determination with less than a 10 ppm error. Confirmation of peptide disulfide bond formation was achieved by analyzing the m/z isotopic distribution and the exact charge. All peptides tested are shown under reducing and non-reducing conditions.

[3] = Intravenous and oral administration of radiolabeled peptide: plasma, urine, feces; format: in vivo, female Harlan athymic nude mice
Protocol: This example describes intravenous and oral administration of peptides of this disclosure, including transit of the intact peptide through the GI tract and to the feces after oral administration. A radiolabeled peptide of SEQ ID NO: 24 was administered intravenously or orally to female Harlan athymic nude mice, 6-8 weeks of age. Radiolabeled peptides of SEQ ID NO: 24 was administered intravenously (IV) at a dose of 4.8 μCi/20 nmol. Radiolabeled peptide of SEQ ID NO: 24 was administered orally (PO) at a dose of 24 μCi/100 nmol. Mice were euthanized at various time points by CO2 asphyxiation and biological fluids were collected, including blood, urine, and feces. Urine was collected be abdominal palpitation immediately before CO2 asphyxiation. Blood was collected by cardiac puncture immediately after CO2 asphyxiation and centrifuged to separate plasma. Feces was collected either before or after CO2 asphyxiation by palpitation of the colon. Samples were analyzed by HPLC to quantify the concentration or dose of intact peptide recovered in plasma, urine, and feces. For HPLC analysis, urine samples were first diluted at a 1:20 ratio in water and plasma samples were diluted at a 1:5 ratio in water. Feces samples were dissolved in Tris buffer, centrifuged to remove the insoluble fraction, and supernatants were diluted at a 1:1 ratio in water.
The delivered dose of ^14C was 4.8 for intravenous administration and 24 μCi for oral administration. Time points examined included 0.08, 0.5, 1, 3, 8, 24, 48 hours and three mice were examined per time point. […] The delivered dose of ^14C was 4.8 for intravenous administration and 24 μCi for oral administration. Time points examined included 0.08, 0.5, 1, 3, 8, 24, 48 hours and three mice were examined per time point. […] The delivered dose of ^14C was 24 μCi for oral administration. Time points examined included 0.5, 1, and 3 hours. […] The intact peptide was eluted near 6 minutes, whereas cleaved fragments—such as the N-terminal Gly residue—were eluted near 1 minute.
(§1) The delivered dose of ^14C was 4.8 μCi for intravenous administration and 24 μCi for oral administration. Time points examined included 0.08, 0.5, 1, 3, 8, 24, 48 hours and three mice were examined per time point. […] The delivered dose of ^14C was 24 μCi for oral administration. Time points examined included 0.5, 1, 3, 8, 24, and 48 hours.
as §1, with “included 3” for “included 0.5, 1, 3, 8, 24,”, “and 8” for “and 48”

cartilage = conditions: 3 hours, ligated kidneys
Protocol: This example describes a dosing scheme for administering knottin peptides to mice in conjunction with kidney ligation. Different dosages of the peptides were administered to Female Harlan athymic nude mice, weighing 20 g-25 g, via tail vein injection (n=2 mice per knottin). The experiment was done in duplicates. The kidneys were ligated to prevent renal filtration of the peptides. Each peptide was radiolabeled by methylating lysines and the N-terminus, so the actual binding agent may contain methyl or dimethyl lysine(s) and a methylated or dimethylated amino terminus.
A target dosage of 50-100 nmol of each peptide carrying 10-25 uCi of ^14C was administered to Female Harlan athymic nude mice while anesthetized. Each peptide was allowed to freely circulate within the animal before the animals were euthanized and sectioned.
This example illustrates peptide homing to cartilage of mice with kidneys that were ligated prior to peptide administration. At the end of the dosing period in EXAMPLE 3, mice were frozen in a hexane/dry ice bath and then frozen in a block of carboxymethylcellulose. […] Thin, frozen sections of animal including imaging of tissues such as brain, tumor, liver, kidney, lung, heart, spleen, pancreas, muscle, adipose, gall bladder, upper gastrointestinal tract, lower gastrointestinal tract, bone, bone marrow, reproductive track, eye, cartilage, stomach, skin, spinal cord, bladder, salivary gland, and other types of tissues were obtained with a microtome, allowed to desiccate in a freezer, and exposed to phosphoimager plates for about ten days.
These plates were developed, and the signal (densitometry) from each organ was normalized to the signal found in the heart blood of each animal. A signal in tissue darker than the signal expected from blood in that tissue indicates peptide accumulation in a region, tissue, structure or cell. For instance, the cartilage is avascular and contains minute amounts of blood. A ratio of at least 170% signal in the cartilage versus heart ventricle was chosen as a reference level for significant targeting to cartilage, which also correlated with clear accumulation in cartilaginous tissues in the images of the slices.
The SEQ ID NO: 24 peptide was radiolabeled as in Example 3 and 100 nmol of peptide was injected into a mouse with intact kidneys. FIG. 5 illustrates the retention of and the tissue distribution in the cartilage of a peptide of SEQ ID NO: 24, 24 hours after administration.

pepsin, trypsin = assay: HPLC after exposure to oxidative, reductive, acidic conditions and proteinases (FIG. 72); format: in vitro ADME; conditions: pH 1 / SGF pH 1.05, 10 mM DTT, 500 U pepsin, 50 U trypsin
Protocol: FIG. 72 illustrates HPLC chromatograms of peptides of SEQ ID NO: 111 and SEQ ID NO: 434 after exposure to a range of conditions including oxidative, reductive, and acidic conditions as well as after exposure to proteinases. FIG. 72A illustrates the HPLC trace of a peptide of SEQ ID NO: 111 under reducing and acidic conditions. FIG. 72B illustrates the HPLC trace of a peptide of SEQ ID NO: 111 under various combinations of reducing agents and proteases including 10 mM DTT in 500 U pepsin, 500 U pepsin, 10 mM DTT in 50 U trypsin, and 50 U trypsin. FIG. 72C illustrates the HPLC trace of a peptide of SEQ ID NO: 434 under various protease conditions including in 500 U pepsin, in 50 U trypsin, non-reducing (NR, oxidized conditions) in simulated gastric fluid (SGF) at pH 1.05, and NR.
FIG. 72 illustrates HPLC chromatograms of peptides of SEQ ID NO: 111 and SEQ ID NO: 434 after exposure to a range of conditions including oxidative, reductive, and acidic conditions as well as after exposure to proteinases. The peptide of SEQ ID NO: 434 is a linearized version of the knottin peptide of SEQ ID NO: 111. The peptide of SEQ ID NO: 434 has the same amino acid sequence as the knottin peptide of SEQ ID NO: 111, but with all cysteines mutated to serines. FIG. 72A illustrates the HPLC trace of a peptide of SEQ ID NO: 111 under reducing and acidic conditions. […]

[4] = 3 hours after 100 nmol radiolabeled peptide
[5] = 24 hours after 100 nmol radiolabeled peptide
[6] = 0.08 hours after 100 nmol radiolabeled peptide
[7] = 0.5 hours after 100 nmol radiolabeled peptide
[8] = 1 hour after 100 nmol radiolabeled peptide
[9] = 8 hours after 100 nmol radiolabeled peptide
[10] = 48 hours after 100 nmol radiolabeled peptide

pepsin, sequence (P0DJD8 63-388): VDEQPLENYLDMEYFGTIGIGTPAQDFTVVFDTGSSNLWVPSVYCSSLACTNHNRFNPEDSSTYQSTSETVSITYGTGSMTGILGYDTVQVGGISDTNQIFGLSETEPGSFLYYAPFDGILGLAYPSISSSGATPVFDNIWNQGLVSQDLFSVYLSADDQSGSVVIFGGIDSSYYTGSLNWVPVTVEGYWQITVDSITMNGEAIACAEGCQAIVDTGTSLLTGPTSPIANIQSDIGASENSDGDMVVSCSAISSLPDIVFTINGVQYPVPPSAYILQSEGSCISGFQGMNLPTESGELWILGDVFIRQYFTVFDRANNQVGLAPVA

GSGVPINVKCRGSRDCLDPCKKAGMRFGKCINSKCHCTP [SEQ ID NO: 24]
Signal in IVD as a percentage of the blood [1, 4]: 1779% | Signal in IVD as a percentage of the blood [1, 5]: 833% | Resistance to degradation in DTT, SGF, SGF and pepsin, SPTD solutions (pepsin): highly resistant to degradation | HPLC peaks under non-reducing versus reducing conditions (resistance to reduction by DTT) [2]: Peaks showing the peptide under non-reducing conditions and reducing conditions are overlapping | Detection of radioactive signal from the dosed peptide in plasma ([3]; IV 20 nmol / PO 100 nmol): at least 50 hours | Plasma concentration as percent of the dose ([3]; IV administration, 20 nmol): up to 10 % of the dose | Plasma concentration as percent of the dose ([3]; PO administration, 100 nmol): up to 1 % of the dose | Intact peptide in feces ([3]; oral dosing 100 nmol, 3 and 8 hours): detected in feces after oral dosing | Nature of radioactivity detected in plasma (HPLC / scintillation) ([3]; oral gavage 100 nmol, 0.5, 1, 3 hours): nearly some of all of the radioactivity detected in plasma was due to fragments of the administered peptide | Cartilage types reached (FIGS. 3-4) (cartilage): homing of SEQ ID NO: 24 to hyaline cartilage such as articular cartilage and physeal cartilage, as well as fibrocartilage

GSGVPINVRCRGSRDCLDPCRRAGMRFGRCINSRCHCTP [SEQ ID NO: 111]
Time at which the signal to background ratio in IVD peaked ([1]; 100 nmol): 24 h | Time at which the signal to background ratio in knee joints peaked ([1]; 100 nmol): 8 h | Presence of radiolabeled peptide in IVD and synovial joints ([1]; 100 nmol, 5 minutes-48 hours): observed in the intervertebral disc (IVD) and synovial joints at all time points (5 minutes-48 hours) | Signal in IVD as a percentage of the blood [1, 6]: 164% | Signal in knee joints as a percentage of the blood [1, 6]: 404% | Signal in IVD as a percentage of the blood [1, 7]: 369% | Signal in knee joints as a percentage of the blood [1, 7]: 510% | Signal in IVD as a percentage of the blood [1, 8]: 961% | Signal in knee joints as a percentage of the blood [1, 8]: 1114% | Signal in IVD as a percentage of the blood [1, 4]: 3213% | Signal in knee joints as a percentage of the blood [1, 4]: 4059% | Signal in IVD as a percentage of the blood [1, 9]: 3777% | Signal in knee joints as a percentage of the blood [1, 9]: 4990% | Signal in IVD as a percentage of the blood [1, 5]: 5391% | Signal in knee joints as a percentage of the blood [1, 5]: 2137% | Signal in IVD as a percentage of the blood [1, 10]: 3320% | Signal in knee joints as a percentage of the blood [1, 10]: 843% | Signal of folded knotted peptide compared to linearized peptide of SEQ ID NO: 434 ([1]; IVD, 3 hours): ~20 fold | Resistance to degradation in DTT, SGF, SGF and pepsin, SPTD solutions (pepsin): similarly highly resistant in the various conditions tested | HPLC peaks under non-reducing versus reducing conditions (resistance to reduction by DTT) [2]: Peaks showing the peptide under non-reducing conditions and reducing conditions are fully overlapping | Resistance to degradation (FIG. 72) (pepsin, trypsin): highly resistant to degradation at pH 1, reducing agents, trypsin, and pepsin

GSGVPINVRSRGSRDSLDPSRRAGMRGRSINSRSHSTP [SEQ ID NO: 434, reference compound]
Cartilage homing (qualitative, WBA) ([1]; 100 nmol radiolabeled peptide): homed to cartilage to a much lesser extent than the folded knotted peptide | Signal in IVD as a percentage of signal in blood ([1]; 3 hr Intact Kidneys, 100 nmol): 177% | Signal in IVD as a percentage of signal in blood ([1]; 3 hr Ligated Kidneys, 100 nmol): 117% | Signal in IVD as a percentage of signal in blood ([1]; 24 hr Intact Kidneys, 100 nmol): 104% | Resistance to degradation (FIG. 72) (pepsin, trypsin): more susceptible to degradation at these different conditions
